{"source": "patent US6878751B1", "about": "“Administration of resveratrol to treat inflammatory respiratory disorders” (Imperial College of Science Technology and Medicine, priority 2000, dated 2005)", "key": {"[1]": {"tested_on": "Steroid naive patients suffering from COPD", "assay": "Oral or inhaled resveratrol vs inhaled glucocorticoids in COPD, steroid naive patients (Example 5)", "assay_type": "in vivo, human", "conditions": "12 to 24 months", "text": "Steroid naive patients suffering from different COPDs patients are selected and divided into populations according to the COPD. Chronic bronchitis populations and emphysema populations are appropriately studied. The populations are divided in terms of progression of their COPD into subpopulations early or mild, mid-stage or moderate, and advanced impairment of lung function. The study is generally patterned after the asthma studies with modifications appropriate to the clinical and histopathologic evaluation of COPD disease, and the references listed in the preceding examples may be applied as appropriate. One major difference is that the COPD study should last for 1 to 2 years or longer, because of the chronic nature of COPD. Each subpopulation is divided equally and randomly into three groups. […]\nPatients are medically monitored for clinical symptoms of COPD throughout the study, including frequency and severity of hypoxemic and respiratiry acidotic exacerbations. […] In addition exhaled nitric oxide (NO) and carbon monoxide (CO) levels may be measured at more frequent intervals, such as every other week. Forced expiratory volume (FEV) and forced inspiratory volume (FIV) are also evaluated to measure airway patency as a direct measure of clinical morbidity and to determine correlation the histopathologic and other indicators of clinical disease. […]"}, "COPD patients": {"tested_on": "COPD patients", "assay": "Oral resveratrol clinical evaluation in COPD (Example 8)", "assay_type": "in vivo, human", "conditions": "oral, 200, 2000 or 3000 mg/day, about six months", "procedure": "Resveratrol is evaluated clinically for efficacy in treating COPD. The study is generally patterned after the asthma studies with modifications appropriate to the clinical and histopathologic evaluation of COPD disease, and the references listed in the preceding examples may be applied as appropriate. Smokers are treated once or more per day with gelatin capsules containing resveratrol. The different populations of COPD patients are subdivided into subpopulations: emphysema patients, bronchitis patients and other COPD. Patients are divided randomly and blindly into four approximately equal groups that receive either 0 (placebo), 200, 2000, or 3000 mg/day resveratrol for about six months in oral doses of 0, 50, 500, or 750 mg administered 4 times daily for about six months.\nPatients are medically monitored for clinical symptoms of COPD throughout the study, including frequency and severity of hypoxemic and respiratiry acidotic exacerbations. In addition, induced sputum samples are obtained from the patients at days 0, 30, 90, and 180 and neutrophil counts are performed and the samples are assayed for IL-8 and myeloperoxidase by routine methods. Forced expiratory volume (FEV) and forced inspiratory volume (FIV) are also evaluated to measure airway patency as a direct measure of clinical morbidity and to determine correlation the histopathologic and other indicators of clinical disease. […]"}, "iNOS": {"tested_on": "iNOS", "assay": "iNOS activity by nitrite and nitrite/nitrate accumulation in cytomix-stimulated human primary epithelial cells", "assay_type": "cell-based", "conditions": "for EC50: Homo sapiens, Epithelial cell, 24 h", "procedure": "The inducible form of the enzyme NO synthase, iNOS(NOS2), which is known to be expressed during inflammation, is thought to be responsible for increased NO levels of asthmatic patients. Agents known to induce iNOS in human primary epithelial cells, such as interleukin-1β, tumor necrosis factor-α, and interferon-γ (cytomix) are useful in assaying resveratrol for inhibition of iNOS expression and activity, and comparing its effect to steroids.\nHuman primary epithelial cells are cultured from normal donor tissue. Explant cultures of tissue obtained from normal human lung transplant donors provided human primary epithelial (HPE) cells. The HPE cells were cultured in Ham's F12 nutrient medium containing 5% (v/v) fetal calf serum (FCS), 1 μM hydrocortisone, 5 ng/ml EGF (epithelial growth factor), 10 μg/ml insulin, 10 nM retinoic acid, 0.5 μg/ml transferrin, 2 μg/ml triiodothyronine, 1.5 μg/ml NaHCO3, 100 μg/ml penicillin, 100 μg/ml streptomycin and 0.25 μg/m amphotericin B; the cells were incubated at 37° C. in a humidified atmosphere containing 95% (v/v) air, 5% (v/v) CO2. The HPE cells were cultured for the last 24 hours prior to the experimental treatments under the same conditions except that additive free Ham's F12 media was substituted for the supplemented Ham's F12 media described above.\nThese cells were stimulated for 24 hours with 50 ng/ml cytomix (interferon-γ) in the absence or presence of resveratrol, or one of glucocorticoids, dexamethasone and budenoside. Activity of iNOS is measured by determination of […] and nitrite/nitrate accumulation. Nitrite was measured by a modification of the method of Misko, et al. (1993) Anal. Biochem. 214:11-16. […] The reaction was stopped by addition of 10 μl of 1.4M NaOH, and fluorescense was measured with a Biolite F1 fluorimeter (Labtech, Uckfield, U.K.) set at: 460 nm emission wavelength, 360 nm excitation wavelength, 40-50% sensitivity. Sample nitrite concentration was calculated by reference to a standard curve of known nitrite concentrations, permitting assay sensitivity to 0.1 μM."}}, "note": "Where two headings read alike, the source gives them in different places."}
{"smiles": "Oc1ccc(/C=C/c2cc(O)cc(O)c2)cc1", "note": "[Resveratrol, 3,5,4′-trihydroxystilbene]", "values": [{"measurement": "efficacy in treating COPD compared with inhaled steroids", "setting": "[1]; oral or pulmonary resveratrol vs pulmonary budenoside", "result": "more effective for treating COPD than inhaled steroids"}, {"measurement": "systemic effects compared with inhaled glucocorticosteroids", "setting": "[1]; oral or pulmonary resveratrol", "result": "fewer systemic effects"}, {"measurement": "efficacy in treating COPD", "setting": "COPD patients", "result": "effective for treating COPD"}, {"measurement": "inhibition of nitrite formation / accumulation in the cell culture media", "setting": "iNOS; HPE cells, cytomix 24 hours, steroids at 10^−9 M to 10^−5 M", "result": "only agent able to inhibit nitrite formation"}, {"measurement": "EC50", "setting": "iNOS; read-out: EC50 for nitrite accumulation", "result": "3600 ± 2900", "unit": "nM"}, {"measurement": "EC50", "setting": "iNOS; read-out: EC50 for nitrite/nitrate accumulation", "result": "880 ± 470", "unit": "nM"}]}
